Measured values reported in the NIST ThermoML archive (doi:10.1016/j.tca.2007.03.018).

Test: molar heat capacity at saturation pressure

C1C2CC3CC1CC(C14CC5CC(CC(C5)C1)C4)(C2)C3 [1,1'-biadamantane]
Conditions	molar heat capacity [J/K/mol]
306.17 K, Crystal 3, Small (less than 1 g) adiabatic calorimetry	347.5
307.06 K, Crystal 3, Small (less than 1 g) adiabatic calorimetry	348.5
307.82 K, Crystal 3, Small (less than 1 g) adiabatic calorimetry	349.9
309.07 K, Crystal 3, Small (less than 1 g) adiabatic calorimetry	351.4
309.47 K, Crystal 3, Small (less than 1 g) adiabatic calorimetry	352.2
311.07 K, Crystal 3, Small (less than 1 g) adiabatic calorimetry	354
311.11 K, Crystal 3, Small (less than 1 g) adiabatic calorimetry	354.6
312.75 K, Crystal 3, Small (less than 1 g) adiabatic calorimetry	356.8
313.06 K, Crystal 3, Small (less than 1 g) adiabatic calorimetry	356.9
314.38 K, Crystal 3, Small (less than 1 g) adiabatic calorimetry	359.1
315.04 K, Crystal 3, Small (less than 1 g) adiabatic calorimetry	359.6
316.02 K, Crystal 3, Small (less than 1 g) adiabatic calorimetry	361.4
317.02 K, Crystal 3, Small (less than 1 g) adiabatic calorimetry	362.4
317.64 K, Crystal 3, Small (less than 1 g) adiabatic calorimetry	363.7
319 K, Crystal 3, Small (less than 1 g) adiabatic calorimetry	365.1
319.26 K, Crystal 3, Small (less than 1 g) adiabatic calorimetry	366
320.52 K, Crystal 3, Small (less than 1 g) adiabatic calorimetry	367.5
320.8 K, Crystal 3, Small (less than 1 g) adiabatic calorimetry	367.7
321.41 K, Crystal 3, Small (less than 1 g) adiabatic calorimetry	368.7
322.3 K, Crystal 3, Small (less than 1 g) adiabatic calorimetry	370.2
322.43 K, Crystal 3, Small (less than 1 g) adiabatic calorimetry	370.1
323.19 K, Crystal 3, Small (less than 1 g) adiabatic calorimetry	371.6
324.05 K, Crystal 3, Small (less than 1 g) adiabatic calorimetry	372.5
324.09 K, Crystal 3, Small (less than 1 g) adiabatic calorimetry	372.8
324.98 K, Crystal 3, Small (less than 1 g) adiabatic calorimetry	374.1
325.67 K, Crystal 3, Small (less than 1 g) adiabatic calorimetry	375
325.87 K, Crystal 3, Small (less than 1 g) adiabatic calorimetry	375.2
326.76 K, Crystal 3, Small (less than 1 g) adiabatic calorimetry	376.5
327.28 K, Crystal 3, Small (less than 1 g) adiabatic calorimetry	377.6
327.65 K, Crystal 3, Small (less than 1 g) adiabatic calorimetry	377.8
328.53 K, Crystal 3, Small (less than 1 g) adiabatic calorimetry	379.5
328.89 K, Crystal 3, Small (less than 1 g) adiabatic calorimetry	380.4
329.42 K, Crystal 3, Small (less than 1 g) adiabatic calorimetry	380.9
330.31 K, Crystal 3, Small (less than 1 g) adiabatic calorimetry	382.3
330.5 K, Crystal 3, Small (less than 1 g) adiabatic calorimetry	384
331.19 K, Crystal 3, Small (less than 1 g) adiabatic calorimetry	388.1
332.05 K, Crystal 3, Small (less than 1 g) adiabatic calorimetry	401.3
332.08 K, Crystal 3, Small (less than 1 g) adiabatic calorimetry	395.6
332.9 K, Crystal 3, Small (less than 1 g) adiabatic calorimetry	409.2
333.64 K, Crystal 3, Small (less than 1 g) adiabatic calorimetry	409.5
333.73 K, Crystal 3, Small (less than 1 g) adiabatic calorimetry	418.7
334.55 K, Crystal 3, Small (less than 1 g) adiabatic calorimetry	433.2
335.12 K, Crystal 3, Small (less than 1 g) adiabatic calorimetry	446.3
335.33 K, Crystal 3, Small (less than 1 g) adiabatic calorimetry	453.8
336.07 K, Crystal 2, Small (less than 1 g) adiabatic calorimetry	469.6
336.53 K, Crystal 2, Small (less than 1 g) adiabatic calorimetry	499.5
336.81 K, Crystal 2, Small (less than 1 g) adiabatic calorimetry	461.5
337.59 K, Crystal 2, Small (less than 1 g) adiabatic calorimetry	432.8
337.89 K, Crystal 2, Small (less than 1 g) adiabatic calorimetry	481.7
338.4 K, Crystal 2, Small (less than 1 g) adiabatic calorimetry	410.4
339.25 K, Crystal 2, Small (less than 1 g) adiabatic calorimetry	400.5
339.33 K, Crystal 2, Small (less than 1 g) adiabatic calorimetry	423.8
340.12 K, Crystal 2, Small (less than 1 g) adiabatic calorimetry	396.8
340.86 K, Crystal 2, Small (less than 1 g) adiabatic calorimetry	403.4
340.99 K, Crystal 2, Small (less than 1 g) adiabatic calorimetry	393.9
341.87 K, Crystal 2, Small (less than 1 g) adiabatic calorimetry	393.4
342.42 K, Crystal 2, Small (less than 1 g) adiabatic calorimetry	398.5
342.75 K, Crystal 2, Small (less than 1 g) adiabatic calorimetry	393.3
343.63 K, Crystal 2, Small (less than 1 g) adiabatic calorimetry	393.7
343.99 K, Crystal 2, Small (less than 1 g) adiabatic calorimetry	395.4
344.52 K, Crystal 2, Small (less than 1 g) adiabatic calorimetry	394.3
345.4 K, Crystal 2, Small (less than 1 g) adiabatic calorimetry	395
345.57 K, Crystal 2, Small (less than 1 g) adiabatic calorimetry	396.6
346.29 K, Crystal 2, Small (less than 1 g) adiabatic calorimetry	395.9
347.15 K, Crystal 2, Small (less than 1 g) adiabatic calorimetry	397.4
347.17 K, Crystal 2, Small (less than 1 g) adiabatic calorimetry	396.8
348.06 K, Crystal 2, Small (less than 1 g) adiabatic calorimetry	397.6
348.72 K, Crystal 2, Small (less than 1 g) adiabatic calorimetry	398.5
348.95 K, Crystal 2, Small (less than 1 g) adiabatic calorimetry	398.4
349.84 K, Crystal 2, Small (less than 1 g) adiabatic calorimetry	399.5
350.3 K, Crystal 2, Small (less than 1 g) adiabatic calorimetry	400
351.09 K, Crystal 2, Small (less than 1 g) adiabatic calorimetry	401.1
351.88 K, Crystal 2, Small (less than 1 g) adiabatic calorimetry	403.6
352.68 K, Crystal 2, Small (less than 1 g) adiabatic calorimetry	402.9
353.46 K, Crystal 2, Small (less than 1 g) adiabatic calorimetry	405.6
354.28 K, Crystal 2, Small (less than 1 g) adiabatic calorimetry	404.8
355.03 K, Crystal 2, Small (less than 1 g) adiabatic calorimetry	407.3
355.88 K, Crystal 2, Small (less than 1 g) adiabatic calorimetry	406.9
356.61 K, Crystal 2, Small (less than 1 g) adiabatic calorimetry	409.2
357.47 K, Crystal 2, Small (less than 1 g) adiabatic calorimetry	408.7
358.18 K, Crystal 2, Small (less than 1 g) adiabatic calorimetry	411.3
359.05 K, Crystal 2, Small (less than 1 g) adiabatic calorimetry	411
359.75 K, Crystal 2, Small (less than 1 g) adiabatic calorimetry	413.4
360.64 K, Crystal 2, Small (less than 1 g) adiabatic calorimetry	412.9
361.32 K, Crystal 2, Small (less than 1 g) adiabatic calorimetry	415.4
362.22 K, Crystal 2, Small (less than 1 g) adiabatic calorimetry	414.6
362.88 K, Crystal 2, Small (less than 1 g) adiabatic calorimetry	417.5
363.82 K, Crystal 2, Small (less than 1 g) adiabatic calorimetry	416.7
364.44 K, Crystal 2, Small (less than 1 g) adiabatic calorimetry	419.7
365.3 K, Crystal 2, Large sample (1 g) DSC	422.2
365.4 K, Crystal 2, Small (less than 1 g) adiabatic calorimetry	418.8
366 K, Crystal 2, Small (less than 1 g) adiabatic calorimetry	421.6
366.98 K, Crystal 2, Small (less than 1 g) adiabatic calorimetry	420.9
367.55 K, Crystal 2, Small (less than 1 g) adiabatic calorimetry	423.3
368.55 K, Crystal 2, Small (less than 1 g) adiabatic calorimetry	423
368.9 K, Crystal 2, Large sample (1 g) DSC	422.5
372.5 K, Crystal 2, Large sample (1 g) DSC	428.1
376.1 K, Crystal 2, Large sample (1 g) DSC	435.3
379.7 K, Crystal 2, Large sample (1 g) DSC	439.7
383.3 K, Crystal 2, Large sample (1 g) DSC	443.1
386.9 K, Crystal 2, Large sample (1 g) DSC	448.3
390.4 K, Crystal 2, Large sample (1 g) DSC	452.1
394 K, Crystal 2, Large sample (1 g) DSC	456.9
397.6 K, Crystal 2, Large sample (1 g) DSC	460.5
401.2 K, Crystal 2, Large sample (1 g) DSC	466.4
404.8 K, Crystal 2, Large sample (1 g) DSC	471.7
408.4 K, Crystal 2, Large sample (1 g) DSC	471.9
412 K, Crystal 2, Large sample (1 g) DSC	478.1
415.6 K, Crystal 2, Large sample (1 g) DSC	481.4
419.2 K, Crystal 2, Large sample (1 g) DSC	490.8
422.8 K, Crystal 2, Large sample (1 g) DSC	493.1
426.4 K, Crystal 2, Large sample (1 g) DSC	496.1
430 K, Crystal 2, Large sample (1 g) DSC	501.3
433.6 K, Crystal 2, Large sample (1 g) DSC	507.8
437.1 K, Crystal 2, Large sample (1 g) DSC	513
440.7 K, Crystal 2, Large sample (1 g) DSC	519.9
444.3 K, Crystal 2, Large sample (1 g) DSC	525
447.9 K, Crystal 2, Large sample (1 g) DSC	529.9
451.5 K, Crystal 2, Large sample (1 g) DSC	537.9
455.1 K, Crystal 2, Large sample (1 g) DSC	544.8
458.7 K, Crystal 2, Large sample (1 g) DSC	549.6
462.3 K, Crystal 2, Large sample (1 g) DSC	556.8
465.9 K, Crystal 2, Large sample (1 g) DSC	563.6
469.5 K, Crystal 2, Large sample (1 g) DSC	572.6
473 K, Crystal 2, Large sample (1 g) DSC	579.1
476.6 K, Crystal 2, Large sample (1 g) DSC	584.1
480.2 K, Crystal 2, Large sample (1 g) DSC	587.8
483.8 K, Crystal 2, Large sample (1 g) DSC	600.3
487.4 K, Crystal 2, Large sample (1 g) DSC	611.9
491 K, Crystal 2, Large sample (1 g) DSC	607.2
494.6 K, Crystal 2, Large sample (1 g) DSC	617.9
495.5 K, Crystal 2, Large sample (1 g) DSC	621.1
496.4 K, Crystal 2, Large sample (1 g) DSC	621.4
497.3 K, Crystal 2, Large sample (1 g) DSC	621.7
498.1 K, Crystal 2, Large sample (1 g) DSC	626.7
499 K, Crystal 2, Large sample (1 g) DSC	629.7
499.9 K, Crystal 2, Large sample (1 g) DSC	632.7
500.8 K, Crystal 2, Large sample (1 g) DSC	635.2
501.7 K, Crystal 2, Large sample (1 g) DSC	637.1
502.6 K, Crystal 2, Large sample (1 g) DSC	636.9
503.5 K, Crystal 2, Large sample (1 g) DSC	639
504.4 K, Crystal 2, Large sample (1 g) DSC	644.5
505.3 K, Crystal 2, Large sample (1 g) DSC	647.9
506.2 K, Crystal 2, Large sample (1 g) DSC	659.8
507 K, Crystal 2, Large sample (1 g) DSC	693.8
507.9 K, Crystal 2, Large sample (1 g) DSC	741.7
508.7 K, Crystal 2, Large sample (1 g) DSC	773.6
509.6 K, Crystal 1, Large sample (1 g) DSC	792.3
510.6 K, Crystal 1, Large sample (1 g) DSC	763.7
511.5 K, Crystal 1, Large sample (1 g) DSC	724.5
512.4 K, Crystal 1, Large sample (1 g) DSC	700.9
513.3 K, Crystal 1, Large sample (1 g) DSC	684.2
514.2 K, Crystal 1, Large sample (1 g) DSC	674.9
515.2 K, Crystal 1, Large sample (1 g) DSC	668.9
516.1 K, Crystal 1, Large sample (1 g) DSC	662.2
517 K, Crystal 1, Large sample (1 g) DSC	655.5
517.9 K, Crystal 1, Large sample (1 g) DSC	658.8
518.8 K, Crystal 1, Large sample (1 g) DSC	647.2
519.7 K, Crystal 1, Large sample (1 g) DSC	637.1
520.6 K, Crystal 1, Large sample (1 g) DSC	640.5
522.4 K, Crystal 1, Large sample (1 g) DSC	641.1
523.3 K, Crystal 1, Large sample (1 g) DSC	647.5
524.2 K, Crystal 1, Large sample (1 g) DSC	653.8
525.1 K, Crystal 1, Large sample (1 g) DSC	653.9
526.8 K, Crystal 1, Large sample (1 g) DSC	660.2
527.7 K, Crystal 1, Large sample (1 g) DSC	653
528.6 K, Crystal 1, Large sample (1 g) DSC	663.2
529.5 K, Crystal 1, Large sample (1 g) DSC	664.4
530.4 K, Crystal 1, Large sample (1 g) DSC	664.4
531.3 K, Crystal 1, Large sample (1 g) DSC	663.3
532.2 K, Crystal 1, Large sample (1 g) DSC	664.8
533.1 K, Crystal 1, Large sample (1 g) DSC	667.8
534 K, Crystal 1, Large sample (1 g) DSC	666.7
534.9 K, Crystal 1, Large sample (1 g) DSC	674.5
535.8 K, Crystal 1, Large sample (1 g) DSC	671
536.7 K, Crystal 1, Large sample (1 g) DSC	671.7
537.6 K, Crystal 1, Large sample (1 g) DSC	675
538.5 K, Crystal 1, Large sample (1 g) DSC	681.1
539.4 K, Crystal 1, Large sample (1 g) DSC	676.6
540.3 K, Crystal 1, Large sample (1 g) DSC	677
543.1 K, Crystal 1, Large sample (1 g) DSC	681.3
544.9 K, Crystal 1, Large sample (1 g) DSC	692.5
546.7 K, Crystal 1, Large sample (1 g) DSC	693.7
548.5 K, Crystal 1, Large sample (1 g) DSC	702.1
550.3 K, Crystal 1, Large sample (1 g) DSC	709.8
552.1 K, Crystal 1, Large sample (1 g) DSC	724.2
553.9 K, Crystal 1, Large sample (1 g) DSC	741
555.7 K, Crystal 1, Large sample (1 g) DSC	752.9
557.4 K, Crystal 1, Large sample (1 g) DSC	744.3
559.2 K, Crystal 1, Large sample (1 g) DSC	772.6
561 K, Crystal 1, Large sample (1 g) DSC	802.7
